Measurements reported in US20260021088A1, “METHODS OF USING ANTI-CD79b IMMUNOCONJUGATES TO TREAT FOLLICULAR LYMPHOMA” (Genentech, Inc., priority 2019, published 2026).

What was measured:
[1] = system: patients with relapsed or refractory (R/R) FL; assay: Phase Ib/II study, dose-escalation phase: dose-limiting toxicities and recommended Phase II dose
Description: The purpose of the FL dose-escalation phase was to identify the RP2D for polatuzumab vedotin and the RP2D for lenalidomide when combined with a fixed dose of obinutuzumab as induction treatment.
Patients were closely monitored for adverse events during the dose limiting toxicity (DLT) assessment window, defined as the first treatment cycle (from Day 1 of Cycle 1 to Day 1 of Cycle 2). Patients experiencing a DLT during the DLT assessment period continued receiving study treatment once the event resolved if determined it was safe to continue treatment and there was potential for clinical benefit. Patients who discontinued from the study prior to completing the DLT assessment window for reasons other than a DLT were considered non-evaluable for dose-escalation decisions and RP2D assessments and were replaced by an additional patient at that same dose level. Patients who missed one or more doses of polatuzumab vedotin or obinutuzumab or five consecutive daily doses of lenalidomide during the DLT assessment window for reasons other than a DLT were also replaced and considered non-evaluable for dose-escalation decisions. Patients who received supportive care during the DLT assessment window that could confound the evaluation of DLTs were replaced at the discretion of the Medical Monitor.
A standard 3+3 dose-escalation schema was used. […]

[2] = system: patients with relapsed or refractory (R/R) FL; conditions: for Dose reductions: n = 56
Description: This Phase Ib/II, open label, multicenter, non-randomized, dose-escalation study evaluated the safety, efficacy, and pharmacokinetics of induction treatment consisting of obinutuzumab (GA101 or G) in combination with polatuzumab vedotin (anti-CD79b(huMA79b.v28)-MC-vc-PAB-MMAE ADC (DCDS4501A) or Pola) and lenalidomide (Len) (G+Pola+Len) in patients with relapsed or refractory (R/R) FL, followed by post induction treatment with obinutuzumab in combination with lenalidomide. The study included an initial dose-escalation phase, followed by an expansion phase during which polatuzumab vedotin and lenalidomide were given at their recommended Phase II doses (RP2Ds).
The primary efficacy endpoint was based on IRC assessment of response. Patients were monitored closely for adverse events throughout the study and for at least 90 days after the last dose of study treatment. To characterize the pharmacokinetic (PK) properties of obinutuzumab, polatuzumab vedotin, and lenalidomide, blood samples were obtained at various timepoints before and during study treatment administration
Safety assessments consist of monitoring and recording adverse events, including serious adverse events and non-serious adverse events of special interest, performing protocol-specified safety laboratory assessments, measuring protocol-specified vital signs, and conducting other protocol-specified tests that were deemed critical to the safety evaluation of the study.
The safety analyses include all treated patients (i.e., patients who received any amount of study treatment). Safety is assessed through summaries of adverse events and changes from baseline in laboratory test results, shift-tables of ECGs findings, and vital signs. All adverse events occurring on or after first study treatment are summarized by mapped term, appropriate thesaurus levels, and NCI CTCAE, Version 4.0 grade. All serious adverse events, adverse events of special interest, and selected adverse events are summarized and listed. Deaths reported during the treatment period and during post-treatment follow-up are listed and summarized.
Adverse Events: NCI CTCAE, Version 4.0 is used for assessing adverse event severity. All adverse events are reported until 90 days after the last dose of study treatment. After this period, the investigator reports any serious adverse events that are believed to be related to prior study treatment and events of second malignancies for patients who received obinutuzumab. Grade 3 and 4 infections (both related and unrelated) are reported until up to 2 years after the last dose of obinutuzumab.
Infusion-Related Reactions: Adverse events that occur during or within 24 hours after the end of study treatment infusion and are judged to be related to infusion of any of the study treatment components are captured as a diagnosis (e.g., “infusion-related reaction”). If a patient experiences both a local and systemic reaction to the same dose of study treatment, each reaction is recorded separately, with signs and symptoms also recorded separately.

[3] = Example 1 interim, n = 52, given as G+Pola+Len

Q: How did the “Recommended Phase II dose (RP2D)” value ([1]; combined with polatuzumab vedotin and fixed dose of 1000 mg obinutuzumab) turn out when Nc1cccc2c1CN(C1CCC(=O)NC1=O)C2=O (stereo not shown) [lenalidomide, 3-(4-amino-1-oxo-2,3-dihydro-1H-isoindol-2-yl)piperidine-2,6-dione] was run?
A: 20 mg

Q: And the “AEs leading to lenalidomide dose interruptions” value [2, 3]?
A: 52%

Q: And the “AEs leading to lenalidomide dose reduction” value [2, 3]?
A: 31%

Q: And the “Patients who required lenalidomide dose reductions” value ([2]; Example 2, during maintenance)?
A: Two

Q: With “obinutuzumab: anti-CD20 antibody; afucosylated glyco-engineered humanized B-Ly1 antibody” as the compound, how does the Dose reductions ([2]; Example 2, given as G+Pola+Len) read?
A: no dose reductions

Q: Which results are given for polatuzumab vedotin?
A: Recommended Phase II dose (RP2D) ([1]; combined with lenalidomide and fixed dose of 1000 mg obinutuzumab): 1.4 mg/kg; Dose reductions ([2]; Example 2, given as G+Pola+Len): no dose reductions
